Source: patent US6852759B2, “Process for the synthesis of trans-alkenoic acids, use thereof” (priority 2002, dated 2005)
Where two headings read alike, the source gives them in different places. Marks after values point to notes of the source that are not given here.

Legend:
[1] = test system: D-Galactosamine (Gal N) induced hepatic injury in rats; test: Hepatoprotective activity, prophylactic study, D-Galactosamine; type: in vivo
[2] = test system: alcohol induced hepatic damage in rats; test: Hepatoprotective activity against alcohol induced hepatic damage (serum and hepatic parameters); type: in vivo; settings: for Hepatic Protein % change: only change and not protection
[3] = test system: CCl4, Paracetamol, Galactosamine and alcohol as hepatotoxins; test: Antihepatotoxicity/hepato-protective activity in vivo, overall comparison with silymarin; settings: prophylactic and curative aspects in vivo
[4] = test system: CCl4 administration in mice
[5] = 12.5 mg/kg p.o. + Gal N, prophylactic
[6] = 25 mg/kg p.o. + Gal N, prophylactic
[7] = 50 mg/kg p.o. + Gal N, prophylactic
[8] = TCA alone 100 mg/kg p.o., no Gal N, prophylactic study
[9] = 12.5 mg/kg p.o. 1 h before CCl4, mice
[10] = 25 mg/kg p.o. 1 h before CCl4, mice
[11] = 50 mg/kg p.o. 1 h before CCl4, mice
[12] = 100 mg/kg p.o. 1 h before CCl4, mice

CCCCCCCC/C=C/CCCCCCCCCCCCCC(=O)O [TCA, t-Tetracos-15-enoic acid]
Serum GOT [1, 5]: 613.20 ± 65.19 Units
Serum GOT, hepatoprotective activity percent [1, 5]: (34.60 ± 7.57) percent
Serum GPT [1, 5]: 743.62 ± 66.83 Units
Serum GPT, hepatoprotective activity percent [1, 5]: (39.30 ± 6.25) percent
Serum Triglycerides [1, 5]: 26.49 ± 1.88 mg %
Serum Triglycerides, hepatoprotective activity percent [1, 5]: (37.38 ± 6.18) percent
Serum ALP [1, 6]: 40.49 ± 2.29 μmole of p-nitrophenol formed/min/L
Serum ALP, hepatoprotective activity percent [1, 6]: (51.62 ± 6.31) percent
Serum Bilirubin [1, 6]: 0.44 ± 0.05 mg %
Serum Bilirubin, hepatoprotective activity percent [1, 6]: (58.00 ± 3.86) percent
Serum GOT [1, 6]: 505.26 ± 29.63 Units
Serum GOT, hepatoprotective activity percent [1, 6]: (47.68 ± 3.99) percent
Serum GPT [1, 6]: 635.11 ± 54.67 Units
Serum GPT, hepatoprotective activity percent [1, 6]: (49.35 ± 5.16) percent
Serum Triglycerides [1, 6]: 23.58 ± 2.02 mg %
Serum Triglycerides, hepatoprotective activity percent [1, 6]: (46.97 ± 6.67) percent
Serum ALP [1, 7]: 34.94 ± 1.43 μmole of p-nitrophenol formed/min/L
Serum ALP, hepatoprotective activity percent [1, 7]: (66.91 ± 3.92) percent
Serum Bilirubin [1, 7]: 0.36 ± 0.02 mg %
Serum Bilirubin, hepatoprotective activity percent [1, 7]: (70.76 ± 2.78) percent
Serum GOT [1, 7]: 406.05 ± 25.82 Units
Serum GOT, hepatoprotective activity percent [1, 7]: (61.05 ± 3.48) percent
Serum GPT [1, 7]: 413.53 ± 23.94 Units
Serum GPT, hepatoprotective activity percent [1, 7]: (70.34 ± 2.25) percent
Serum Triglycerides [1, 7]: 21.37 ± 1.51 mg %
Serum Triglycerides, hepatoprotective activity percent [1, 7]: (54.25 ± 4.97) percent
Serum ALP [1, 8]: 19.84 ± 1.58 μmole of p-nitrophenol formed/min/L
Serum Bilirubin [1, 8]: 0.20 ± 0.02 mg %
Serum GOT [1, 8]: 122.47 ± 11.84 Units
Serum GPT [1, 8]: 95.22 ± 8.74 Units
Serum Triglycerides [1, 8]: 8.79 ± 0.55 mg %
Hepatic G-6-Pase ([2]; 25 mg/kg + Alcohol): 2.19 ± 0.465 Units/g
Hepatic G-6-Pase % Protection ([2]; 25 mg/kg + Alcohol): 73%
Hepatic Protein ([2]; 25 mg/kg + Alcohol): 172 ± 20.430 Mg/g
Hepatic SDII ([2]; 25 mg/kg + Alcohol): 7.79 ± 0.272 Units/G
Hepatic SDII % Protection ([2]; 25 mg/kg + Alcohol): 14%
Hepatic TG ([2]; 25 mg/kg + Alcohol): 14.75 ± 0.60 Mg/g
Hepatic TG % change ([2]; 25 mg/kg + Alcohol): −3.10%
Hepatic Protein % change ([2]; 25 mg/kg + Alcohol): −3.9%
ALF ([2]; 25 mg/kg + Alcohol, serum): 16.00 ± 2.04 U/I
ALF % Protection ([2]; 25 mg/kg + Alcohol, serum): 80.00%
GGT ([2]; 25 mg/kg + Alcohol, serum): 1.90 ± 0.447 IU/I
GGT % Protection ([2]; 25 mg/kg + Alcohol, serum): 63.00%
SGOT ([2]; 25 mg/kg + Alcohol, serum): 310.00 ± 30.36**^β U/I
SGOT % Protection ([2]; 25 mg/kg + Alcohol, serum): 77.29%
SGPT ([2]; 25 mg/kg + Alcohol, serum): 234.00 ± 8.80**^β U/I
SGPT % Protection ([2]; 25 mg/kg + Alcohol, serum): 57.33%
Serum Protein ([2]; 25 mg/kg + Alcohol, serum): 16.90 ± 3.38 G/dl
Serum Protein % Protection ([2]; 25 mg/kg + Alcohol, serum): 44.40%
Hepatic G-6-Pase ([2]; 50 mg/kg + Alcohol): 2.20 ± 2.223 Units/g
Hepatic G-6-Pase % Protection ([2]; 50 mg/kg + Alcohol): 75%
Hepatic Protein ([2]; 50 mg/kg + Alcohol): 174 ± 2.11 Mg/g
Hepatic SDII ([2]; 50 mg/kg + Alcohol): 8.24 ± 0.390 Units/G
Hepatic SDII % Protection ([2]; 50 mg/kg + Alcohol): 43%
Hepatic TG ([2]; 50 mg/kg + Alcohol): 15.44 ± 1.073 Mg/g
Hepatic TG % change ([2]; 50 mg/kg + Alcohol): 1.40%
Hepatic Protein % change ([2]; 50 mg/kg + Alcohol): −2.80%
ALF ([2]; 50 mg/kg + Alcohol, serum): 14.60 ± 2.82***^β U/I
ALF % Protection ([2]; 50 mg/kg + Alcohol, serum): 95.00%
GGT ([2]; 50 mg/kg + Alcohol, serum): 1.54 ± 0.128 IU/I
GGT % Protection ([2]; 50 mg/kg + Alcohol, serum): 90.00%
SGOT ([2]; 50 mg/kg + Alcohol, serum): 295.00 ± 34.39**^β U/I
SGOT % Protection ([2]; 50 mg/kg + Alcohol, serum): 101.09%
SGPT % Protection ([2]; 50 mg/kg + Alcohol, serum): 73.86%
Serum Protein ([2]; 50 mg/kg + Alcohol, serum): 12.60 ± 3.09 G/dl
Serum Protein % Protection ([2]; 50 mg/kg + Alcohol, serum): 7.70%
antihepatotoxicity/hepato-protective activity compared with silymarin [3]: better protection and reversal of biochemical parameters better then those obtained with silymarin
Zoxazolamine Hepatoprotection [4, 9]: 40.10 ± 6.55%
Zoxazolamine Paralysis time [4, 9]: 39.00 ± 1.93*^c min
Zoxazolamine Hepatoprotection [4, 10]: 51.40 ± 11.12%
Zoxazolamine Paralysis time [4, 10]: 35.66 ± 3.28**^c min
Zoxazolamine Hepatoprotection [4, 11]: 70.61 ± 7.68%
Zoxazolamine Paralysis time [4, 11]: 30.00 ± 2.26**^c min
Zoxazolamine Hepatoprotection [4, 12]: 84.17 ± 6.55%
Zoxazolamine Paralysis time [4, 12]: 26.00 ± 1.93**^c min
